In test [1] the test system is bone marrow derived macrophages (BMDMs). Description: LPS-induced glycolysis and inflammation in bone marrow derived macrophages. The conditions noted are these: 50 μM compound, 4 hours. The format is cell-based, mouse. The method, then: Macrophage were isolated as follows: femurs and tibia were collected from mice, cleaned of any soft tissues and the ends were cut off from each bone. The tibia and femur were then transferred into 1.5 mL Eppendorf tubes and the marrow was extracted via centrifugation (1900 g×5 min), resuspended in DMEM and strained through a 40 μm strainer into a 50 ml falcon tube. The strainer was rinsed with an additional 40 mL of DMEM, the cell suspension was transferred to a T175 flask, an additional 60 mL of DMEM was added and the cells were cultured at 37° C. for 4 hours. Differentiation was initiated by adding 20 mL of L929 fibroblast conditioned media and 12 mL was plated on 100 mm dishes. The cells were then left for 7 days to differentiate into macrophages. The media was then aspirated, cells were scraped in 3 mL of DMEM, then pooled and diluted at a ratio of 1:2 with DMEM. The cell suspension was plated in 12-well plates and cells were allowed to adhere overnight. […] Changes in gene expression were calculated using 2-delta cT method. Macrophage glycolytic rates were assessed using a Seahorse Bioanalyzer (XFe96, Agilent Scientific Instruments). […] The following day cells were serum-starved for 2 hours then treated with LPS (100 ng/mL) and Compound I-1 (50 μM) and glycolytic rate was analyzed (Agilent Seahorse XFp Cell Energy Phenotype Test Kit, Cat #103275-100).

Test [2] concerns DEN-injected mice on high fat high fructose diet. Description: NASH-HCC model by diethylnitrosamine (DEN) induction: tumors, ALT/AST, liver histology. The format is in vivo, mouse. Set-up: key to Fibrosis Score, individual mice: 1a: Mild (delicate) zone 3 perisinusoidal fibrosis, requires Masson's trichome stain to identify; 1b: Moderate(dense) zone 3 perisinusoidal fibrosis; 1c: Portal fibrosis only; NAFLD Activity Score, individual mice / NAFLD Activity Score, Avg: scale not given here. The note with it: 4 weeks; for Fibrosis Score, individual mice / NAFLD Activity Score, individual mice / No. of Surface Tumors, individual mice / NAFLD Activity Score, Avg / No. of Surface Tumors, Avg: 100 mg/kg daily oral gavage; for No. of Surface Tumors, individual mice: mice analyzed by Nanostring; for NAFLD Activity Score, Avg / No. of Surface Tumors, Avg: n=8; for liver fibrosis (trichrome stained livers): 100 mg/kg; for NAFLD activity scores (NAS) / liver inflammation scores / liver steatosis and ballooning scores: 30 and 100 mg/kg; for plasma ALT and AST levels: 30 or 100 mg/kg, dose-dependent. The method, then: Materials and Methods. All experiments were carried out using the guidelines approved by the Animal Research Ethics Board at McMaster University, Canada. Male mice obtained from Steinberg Lab Breeding Colony housed within the McMaster University Central Animal Facility were used for these experiments. The test agents were prepared by solubilizing them in a solution of sodium bicarbonate. Compound I-32 and Compound I-1 were administered at a dose of 30 or 100 mg/kg with a dosing volume of 10 ml/kg by daily oral gavage for 4 weeks. This route was selected because it simulates the oral administration route intended for use in human clinical studies and ensures the correct dose of compound is ingested by each animal. Data are expressed as means±the standard error of the mean. Statistical comparisons were carried out using a one-way analysis of variance followed by Dunnett's post hoc test using GraphPad Prism 8 software. A p-value of less than or equal to 0.05 will be used as the criterion of significance.
Experimental Protocol. At 2 weeks of age mice were injected with diethylnitrosamine (DEN) at 25 mg/kg body weight. After weaning mice were housed with littermates and fed a normal chow diet (Teklad 8640 22/5). […] After 7.5 months, mice were bled from the tail vein and plasma alpha-fetoprotein (AFP) levels were determined. AFP is a serum biomarker of HCC progression in humans and mice treated with DEN. At 8 months, mice were divided into 5 groups, based on mean AFP levels and then received a single daily dose of either vehicle (1.5% CMC and 0.2% Tween-20) or 30 mg/kg or 100 mg/kg of Compound I-32 or Compound I-1 via gavage. Throughout the experiments mice were housed in ventilated cage racks with ad libitum access to the food and water. An automatic timing device was used to maintain an alternating 12-hour cycle of light and dark.
After 4 weeks of daily treatments mice were anesthetized by I.P. injection of Ketamine/Xylazine (150 mg/12.4 mg/kg, respectively) in saline. When anesthetic plane has been achieved, 0.5 ml of blood was drawn by cardiac puncture, and plasma was isolated and frozen in liquid nitrogen. The liver was excised intact and rinsed briefly in PBS on ice. The liver was weighed, a photo was taken and the number of visible lesions on the surface of the liver was counted and recorded. A portion of tumor-free liver (˜200 mg, caudate lobe) and up to three individual tumors were removed, flash frozen in liquid nitrogen and stored for molecular analysis. The remainder of the liver was placed in 10% formalin, fixed for 48 hours, and stored in 70% ethanol until it was embedded in paraffin, sectioned, and mounted on slides for histological analysis.
AFP assay. Before starting the treatment, mice were bled from the tail vein and plasma alpha-fetoprotein (AFP) levels were determined using mouse alpha-Feto protein/AFP Duoset ELISA kit (R&D Systems, Inc., MN, USA) as recommended by the manufacturer. 100 μl sample (1:1000 in reagent diluent) was added on each well of 96-well plate coated with mouse AFP capture antibody. Next, the plates were washed with wash buffer and 100 μl detection antibody was added to each well, followed by the Streptavidin HRP and substrate solution. The reaction was stopped by stop solution and the optical density of each well was measured in a microplate reader set to 450 nm. After measuring AFP levels, mice were divided into five groups (>800 ng/ml) and treatment was initiated.
ALT/AST assay. Plasma Alanine Transaminase (ALT) and Aspartate Transaminase (AST) levels were determined using ALT (CAK1002, Cohesion Biosciences) and AST (CAK 1004, Cohesion Biosciences) activity kits following the manufacturer instructions. 10 μl of plasma sample was added with 50 μl of substrate in 96-well plate. The reaction was carried out for 30 minutes at 37° C., detected by dye reagent I and II and absorbance was measured at 520 nm. […]

Several values for one entry are separate records, joined by “and”; a condition that tells them apart may be missing. Identical values can stand only once.

Regarding `CC(C)(CCCCc1ccc(CCCCC(C)(C)C(=O)O)cc1)C(=O)O` [Compound I-1, 6-[4-(5-carboxy-5-methylhexyl)-phenyl]-2,2-dimethylhexanoic acid], the “LPS-induced glycolysis (Seahorse) and inflammation (Il-6, Il-1b mRNA)” value in test [1] was “suppression of LPS-induced glycolysis and inflammation”. Besides, the “reduction of the number of surface tumors” value in test [2] (30 mg/kg and 100 mg/kg daily oral) was “over 70%”. For the same compound, in test [2], the “Fibrosis Score, individual mice” value is 1a (3×) and 1b (3×) and 1c (2×); the “NAFLD Activity Score, individual mice” value was 4 (4×) and 6 (2×) and 3 and 2; the “No. of Surface Tumors, individual mice” value was 8 and 6 (2×) and 11 and 10 and 14 and 7 and 3; the “NAFLD Activity Score, Avg” value was determined as 4.1. Moreover, in test [2], the “No. of Surface Tumors, Avg” value is on record as 8.1; the “liver fibrosis (trichrome stained livers)” value is on record as “fibrosis was significantly reduced”; the “NAFLD activity scores (NAS)” value is “reduced NAFLD activity scores (NAS) at both 30 and 100 mg/kg”; the liver inflammation scores result is reported as “without altering inflammation scores”. In test [2], the “liver steatosis and ballooning scores” value is given as “dramatically reduced steatosis”; the “plasma ALT and AST levels” value is listed as “significantly decreased”.
In the case of `CC(C)(CCCCc1cccc(CCCCC(C)(C)C(=O)O)c1)C(=O)O` [Compound I-32, 6-[3-(5-carboxy-5-methylhexyl)-phenyl]-2,2-dimethylhexanoic acid], in test [2], the “Fibrosis Score, individual mice” value was 1b (4×) and 1c and 1a (3×); the “NAFLD Activity Score, individual mice” value was 2 and 5 and 4 (3×) and 6 and 3 and 1; the “No. of Surface Tumors, individual mice” value is 7 and 6 and 3 (2×) and 1 and 30 and 4 and 2; the “NAFLD Activity Score, Avg” value is recorded as 3.625. In addition, in test [2], the “No. of Surface Tumors, Avg” value came out at 7; the “liver fibrosis (trichrome stained livers)” value is listed as “fibrosis was significantly reduced”; the “NAFLD activity scores (NAS)” value is “reduced NAFLD activity scores (NAS) at both 30 and 100 mg/kg”; the liver inflammation scores result is “without altering inflammation scores”. Besides, in test [2], the “liver steatosis and ballooning scores” value is “dramatically reduced steatosis”; the “plasma ALT and AST levels” value is reported as “significantly decreased”.

(Values after US11730712B2, “Functionalized long-chain hydrocarbon mono- and di-carboxylic acids and derivatives thereof, and their use for the prevention or treatment of disease” (ESPERVITA THERAPEUTICS, INC., priority 2021, dated 2023).)
